The values below come from US8017611B2, “Pyridine and pyrazine derivatives -083” (AstraZeneca AB, priority 2007, dated 2011).

Assay [1] deals with T1, c-Met (Homo sapiens, UniProt P08581).
T1 construct: pY^1234pY^1235c-Met(1074-1366) kinase domain
Briefly: In vitro c-Met kinase assay (AlphaScreen), Test (c). The following applies: read-out: IC50 versus c-Met tyrosine kinase. The format is biochemical. As for the experimental part: The assay used AlphaScreen technology (Gray et al., Analytical Biochemistry, 2003, 313: 234-245) to determine the ability of test compounds to prevent the activation of c-Met, in which wild type activated c-Met phosphorylates a mutant form of c-Met lacking catalytic activity but retaining the ability to be phosphorylated on the activating residues.
Kinase activity assays were performed in 384-well low-volume white plates (Greiner, 784075) with a total volume of 12 μL in each well. Each kinase reaction contained 40 pg (100 pM) pY^1234pY^1235c-Met(1074-1366) kinase domain, 44 ng (100 nM) cMyc-[D1204N,R1208Q]c-Met(1069-1366)-biotin, 25 mM HEPES (pH7.4), 0.1 mM sodium orthovanadate, 1 mM DTT, 0.01% (v/v) Tween-20, 10 mM magnesium chloride, 0.1% BSA, 50 μM ATP.
Various concentrations of test compounds were each added in 6% (v/v) DMSO to yield a final assay DMSO concentration of 1% (v/v). […] Plates were read using an Envision (Perkin Elmer) with excitation at 680 nm, emission […]. […]
Background: In Alpha technology, singlet oxygen from a donor bead excites a nearby acceptor bead.

Assay [2] has as its target T2, Axl expressed on NCI H1299 lung large cell carcinoma cells (Homo sapiens, UniProt P30530).
T2 sequence (P30530 26-894): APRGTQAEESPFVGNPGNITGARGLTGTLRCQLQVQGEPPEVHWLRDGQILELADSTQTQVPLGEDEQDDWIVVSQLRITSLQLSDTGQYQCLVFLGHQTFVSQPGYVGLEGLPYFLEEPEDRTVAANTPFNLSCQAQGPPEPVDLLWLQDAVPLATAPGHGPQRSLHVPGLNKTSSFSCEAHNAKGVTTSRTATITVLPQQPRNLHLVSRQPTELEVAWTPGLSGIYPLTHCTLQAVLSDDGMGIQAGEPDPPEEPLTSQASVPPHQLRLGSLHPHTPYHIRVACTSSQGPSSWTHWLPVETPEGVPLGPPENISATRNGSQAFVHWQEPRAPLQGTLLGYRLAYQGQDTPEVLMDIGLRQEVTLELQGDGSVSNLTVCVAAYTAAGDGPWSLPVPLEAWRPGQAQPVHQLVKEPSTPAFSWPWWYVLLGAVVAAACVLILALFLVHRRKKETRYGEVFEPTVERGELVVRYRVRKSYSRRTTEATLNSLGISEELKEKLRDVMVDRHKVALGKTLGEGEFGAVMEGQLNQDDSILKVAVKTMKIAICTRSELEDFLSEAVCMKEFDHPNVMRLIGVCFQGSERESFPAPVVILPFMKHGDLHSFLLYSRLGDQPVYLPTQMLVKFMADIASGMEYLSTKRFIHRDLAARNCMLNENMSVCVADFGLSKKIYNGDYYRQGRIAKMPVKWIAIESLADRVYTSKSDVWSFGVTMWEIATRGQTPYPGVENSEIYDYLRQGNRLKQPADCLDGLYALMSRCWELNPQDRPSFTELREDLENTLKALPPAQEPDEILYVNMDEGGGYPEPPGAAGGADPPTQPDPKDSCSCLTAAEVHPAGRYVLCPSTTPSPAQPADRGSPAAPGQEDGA
Briefly: Cellular phospho-Axl ELISA assay, Test (b). The note with it: Test (b). In general terms: In an ELISA, binding on a coated surface is turned into a signal by an enzyme label.
Procedure: This assay uses a conventional ELISA method to determine the ability of test compounds to inhibit phosphorylation of tyrosine residues in Axl.
100 μl Aliquots were seeded into each of the wells of a clear 96 well tissue culture plate and the plates were incubated overnight at 37° C. with 5% CO2 to allow the cells to adhere to the wells.
Aliquots of each compound concentration were added to the cells in each well using the Echo 550 (Labcyte Inc., Sunnyvale, Calif., US). Control cells received DMSO only. The cells were incubated for 2 hours at 37° C. with 5% CO2.
The resultant tissue culture plates were incubated on ice for 30 minutes to ensure full lysis.
The wells were washed 3 times with 250 μl per well of PBS containing 0.05% v/v Tween (PBS/T). The wells were treated with 3% w/v BSA in PBS at ambient temperature for 2 hours and subsequently washed 3 times with 250 μl per well of PBS/T.
50 μl Aliquots of the NCI H1299 cell lysates were added to the ELISA plates.
100 μl Aliquots of substrate solution were added to each of the wells and fluorescence was read on a Tecan Ultra plate reader (Tecan UK Ltd., Reading, Berkshire, UK).

Assay [3] has as its target T3, recombinant Axl tyrosine kinase (Homo sapiens, UniProt P30530).
T3 construct: encompassing amino acids 473 to 894 of Axl; GST (N); made in house; host or cells: SF126 insect cells
T3 sequence (P30530 473-894): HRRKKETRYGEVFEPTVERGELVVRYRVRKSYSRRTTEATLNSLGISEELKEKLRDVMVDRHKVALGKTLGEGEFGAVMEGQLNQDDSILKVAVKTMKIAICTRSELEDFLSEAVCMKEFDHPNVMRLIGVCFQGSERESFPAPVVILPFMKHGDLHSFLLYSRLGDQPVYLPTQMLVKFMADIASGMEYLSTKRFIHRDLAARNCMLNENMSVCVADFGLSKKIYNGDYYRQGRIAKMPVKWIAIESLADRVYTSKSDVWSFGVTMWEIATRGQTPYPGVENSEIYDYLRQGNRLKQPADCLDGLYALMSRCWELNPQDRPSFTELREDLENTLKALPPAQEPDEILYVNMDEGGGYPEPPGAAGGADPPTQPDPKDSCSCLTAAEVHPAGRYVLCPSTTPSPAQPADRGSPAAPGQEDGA
Briefly: In vitro Axl kinase assay (AlphaScreen), Test (a). The format is biochemical.

In general, IC50 refers to the midpoint of a concentration-inhibition curve.

Molecules are shown by their SMILES. Read-outs that look alike come from different tables or passages of the source.

T1 sequence (P08581 1074-1366): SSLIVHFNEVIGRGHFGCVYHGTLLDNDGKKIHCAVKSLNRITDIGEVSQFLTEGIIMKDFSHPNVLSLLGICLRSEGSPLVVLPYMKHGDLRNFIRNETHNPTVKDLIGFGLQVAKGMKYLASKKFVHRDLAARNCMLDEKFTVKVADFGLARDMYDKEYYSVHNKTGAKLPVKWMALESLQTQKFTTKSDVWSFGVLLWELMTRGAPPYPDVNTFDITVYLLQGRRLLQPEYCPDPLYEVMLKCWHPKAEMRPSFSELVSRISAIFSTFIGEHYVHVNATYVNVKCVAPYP

In the case of `CN1CCC(n2cc(-c3cnc(N)c(-c4nc5ccc(F)cc5o4)c3)cn2)CC1` [Example 7.2], the IC50 is roughly 1.95 µM in assay [1]; 0.111 µM in assay [2] (read-out: IC50 versus cellular phospho-Axl, mean recalculated from a larger number of replicates, later recalculated); roughly 0.039 µM in assay [2] (read-out: IC50 versus cellular phospho-Axl, NCI H1299 cells stimulated with GAS6); roughly 0.024 µM in assay [3] (Test (a), read-out: IC50 versus Axl tyrosine kinase). In assay [3] (test compound at 1 μM, first value quoted), the “% Axl tyrosine kinase inhibition at 1 μM concentration” value came to 96.6%.
